Patent US20210301315A1, “METHODS FOR TREATING POLYMICROBIAL INFECTIONS” (priority 2017, published 2021)
Entries after “also recorded” stand apart in the source; their conditions may differ.

What was measured:
[1] = test system: E. faecalis and S. agalactiae; experiment: P-AST species-pair interaction on antibiotic resistance (logistic regression, HSAP/UP); assay type: cell-based, Enterococcus faecalis; Streptococcus agalactiae; conditions: E. faecalis and S. agalactiae together v. expected from each species alone (HSAP/UP)
Description: (§1) The Pooled Antibiotic Sensitivity Test (P-AST) is permitting the organisms identified to grow in the presence of antibiotics and measuring the minimum concentration of antibiotic to inhibit growth. Antibiotic susceptibility testing is performed when at least a single organism within a pool of organisms reaches a certain threshold, (e.g., at least 3,000 cells/ml, at least 5,000 cells/ml, at least 10,000 cells/ml, etc.) and can grow in the presence of the antibiotic in the assay within the time of testing. (Note: 10,000 cells/ml is equivalent to 10,000 CFU/ml.) The present invention is not limited to a 10,000 cells/mL threshold. These pools of organism(s) are inoculated into growth medium then placed onto an antibiotic laden “spec plate” that is then incubated and analyzed for growth. The breakpoints are derived from the CLSI breakpoints.
(§2) P-AST was performed by aliquoting 1 mL of patient urine specimen into a 1.7 mL microcentrifuge tube. After centrifugation, the supernatant was aspirated and discarded, leaving approximately 100 or 50 μL (minimum volume left above pellet created from centrifugation) of patient sample in the microcentrifuge tube. […] Optical density of samples was then read on a DensiCHEK plate reader. […] A spectrophotometer (plate reader) is used to measure optical density of the samples in wells of antibiotics and inoculum in order to determine if there is growth in a well. […]

[2] = test system: E. coli and S. agalactiae; experiment: as above; assay type: cell-based, Escherichia coli; Streptococcus agalactiae; conditions: E. coli and S. agalactiae together v. expected from each species alone (HSAP/UP)
Description: as §1
(§3) P-AST was performed by aliquoting 1 mL of patient urine specimen into a 1.7 mL microcentrifuge tube. After centrifugation, the supernatant was aspirated and discarded, leaving approximately 100 or 50 μL (minimum volume left above pellet created from centrifugation) of patient sample in the microcentrifuge tube. One mL of Mueller Hinton Growth Media was then aliquoted into the patient sample in the microcentrifuge tube and the tubes were incubated at 35° C. in a non-CO2 incubator for 6 hours. Non-inoculated liquid MH-media is incubated as the negative control to confirm the media used is not contaminated. Those samples that reached a minimum threshold of 10,000 cells/mL were then diluted by aliquoting 0.5 mL of sample into a 50 mL conical tube containing Mueller Hinton Growth Media (in this example, the dilution was 1:60, e.g., 500 μL was added to 29.5 mL). 96-well plates pre-loaded with antibiotics were then inoculated with diluted samples and incubated along with control plates for 12-16 hours at 35° C. in a single layer. Optical density of samples was then read on a DensiCHEK plate reader. The DensiCHEK instrument is used to measure the concentration of turbid samples considered positive because PCR-ID result was >=10,000 cells/mL. The turbid samples were diluted/normalized to the same concentration and then added to a volume of liquid, e.g., 29.5 mL of liquid MH-media. A spectrophotometer (plate reader) is used to measure optical density of the samples in wells of antibiotics and inoculum in order to determine if there is growth in a well. The present invention is not limited to a concentration of 10,000 cells/mL.
(§4) Interactions between pairs of bacterial species were investigated using a logistic regression model to predict resistance in the presence of specific bacterial species. Bacterial species that tested positive in at least 30 samples were considered in the regression model: these 16 species were A. schaalii, A. urinae, A. omnicolens, CoNS, C. riegelii, E. faecalis, E. coli, K. oxytoca, K. pneumoniae, M. morganii, P. mirabilis, P. aeruginosa, S. aureus, S. agalactiae, U. urealyticum, VGS. Backward stepwise model selection was performed on the model with all main effects and all pairwise interactions using an enter significance level of α=0.10 and an exit significance level of α=0.05 to obtain the best fitting model. This model was used to predict resistance rates when a specific organism was present or when a specific pair of organisms were present.
(§5) Using the logistic regression model described above, the resistance rate for a pair of species was compared to the resistance rates for each species alone. […]

[3] = test system: Coagulase-negative Staphylococcus (CoNS) and K. pneumoniae; experiment: as above; assay type: cell-based, Coagulase negative staphylococci; Klebsiella pneumoniae; conditions: CoNS and K. pneumoniae together v. expected from each species alone (HSAP/UP)
Description: as §1, §3
Interactions between pairs of bacterial species were investigated using a logistic regression model to predict resistance in the presence of specific bacterial species. […]

[4] = test system: bacteria detected in patient urine specimens; experiment: Pooled Antibiotic Susceptibility Testing (P-AST) of urine specimens, polymicrobial v. monomicrobial (logistic regression); assay type: cell-based; conditions: polymicrobial urine specimens
Description: The present invention describes Pooled Antibiotic Susceptibility Testing (P-AST), which involves simultaneously growing all detected bacteria together in the presence of antibiotics and then measuring susceptibility. […] Urine specimens were obtained from patients presenting with UTI-like symptoms to 37 urology clinics. The odds of resistance were estimated for 18 antibiotics relative to increasing numbers of bacterial species in a specimen.
The following study combines data from two studies of antibiotic resistance patterns in elderly patients presenting with symptoms consistent with a UTI. […] All subjects met the following inclusion and exclusion criteria. Inclusion criteria included: symptoms of acute cystitis, complicated UTI, persistent UTI, recurrent UTI, prostatitis, pyelonephritis, interstitial cystitis (at any age), symptoms of other conditions at years of age, specimen volumes sufficient to permit urine culture and Multiplex Polymerase Chain Reaction (M-PCR) combined with Pooled Antibiotic Sensitivity Testing (P-AST), patient informed consented, documented times at which the specimens were collected and stabilized with boric acid in grey-top tubes. Exclusion criteria included prior participation in this study, antibiotics taken for any reason other than UTI at the time of enrollment, chronic (≥10 days) indwelling catheters, self-catheterization, and urinary diversion.
(§6) The Pooled Antibiotic Sensitivity Test (P-AST) is permitting the organisms identified to grow in the presence of antibiotics and measuring the minimum concentration of antibiotic to inhibit growth. Antibiotic susceptibility testing is performed when at least a single organism within a pool of organisms reaches a certain threshold, (e.g., at least 3,000 cells/ml, at least 5,000 cells/ml, at least 10,000 cells/ml, etc.) and can grow in the presence of the antibiotic in the assay within the time of testing. […] These pools of organism(s) are inoculated into growth medium then placed onto an antibiotic laden “spec plate” that is then incubated and analyzed for growth. The breakpoints are derived from the CLSI breakpoints.

[5] = test system: E. faecalis and K. pneumoniae; experiment: P-AST species-pair interaction on antibiotic resistance (logistic regression, HSAP/UP); assay type: cell-based, Enterococcus faecalis; Klebsiella pneumoniae; conditions: E. faecalis and K. pneumoniae together v. expected from each species alone (HSAP/UP)
Description: as §1, §2

[6] = test system: E. faecalis and P. mirabilis; experiment: as above; assay type: cell-based, Enterococcus faecalis; Proteus mirabilis; conditions: E. faecalis and P. mirabilis together v. expected from each species alone (HSAP/UP)
Description: as §1, §2

[7] = test system: E. faecalis and P. aeruginosa; experiment: as above; assay type: cell-based, Enterococcus faecalis; Pseudomonas aeruginosa; conditions: E. faecalis and P. aeruginosa together v. expected from each species alone (HSAP/UP)
Description: as §1, §2

E. faecalis and E. coli = experiment: as above; assay type: cell-based, Enterococcus faecalis; Escherichia coli; conditions: E. faecalis and E. coli together v. expected from each species alone (HSAP/UP)
Description: as §1, §2

[8] = test system: Coagulase-negative Staphylococcus (CoNS) and E. faecalis; experiment: as above; assay type: cell-based, Coagulase negative staphylococci; Enterococcus faecalis; conditions: CoNS and E. faecalis together v. expected from each species alone (HSAP/UP)
Description: as §1, §2

[9] = test system: Coagulase-negative Staphylococcus (CoNS) and S. agalactiae; conditions: CoNS and S. agalactiae together v. expected from each species alone (HSAP/UP)
Description: as §6
P-AST was performed by aliquoting 1 mL of patient urine specimen into a 1.7 mL microcentrifuge tube. After centrifugation, the supernatant was aspirated and discarded, leaving approximately 100 or 50 μL (minimum volume left above pellet created from centrifugation) of patient sample in the microcentrifuge tube. One mL of Mueller Hinton Growth Media was then aliquoted into the patient sample in the microcentrifuge tube and the tubes were incubated at 35° C. in a non-CO2 incubator for 6 hours. […] Those samples that reached a minimum threshold of 10,000 cells/mL were then diluted by aliquoting 0.5 mL of sample into a 50 mL conical tube containing Mueller Hinton Growth Media (in this example, the dilution was 1:60, e.g., 500 μL was added to 29.5 mL). 96-well plates pre-loaded with antibiotics were then inoculated with diluted samples and incubated along with control plates for 12-16 hours at 35° C. in a single layer. Optical density of samples was then read on a DensiCHEK plate reader. The DensiCHEK instrument is used to measure the concentration of turbid samples considered positive because PCR-ID result was >=10,000 cells/mL. The turbid samples were diluted/normalized to the same concentration and then added to a volume of liquid, e.g., 29.5 mL of liquid MH-media. A spectrophotometer (plate reader) is used to measure optical density of the samples in wells of antibiotics and inoculum in order to determine if there is growth in a well.
Interactions between pairs of bacterial species were investigated using a logistic regression model to predict resistance in the presence of specific bacterial species. Bacterial species that tested positive in at least 30 samples were considered in the regression model: these 16 species were A. schaalii, A. urinae, A. omnicolens, CoNS, C. riegelii, E. faecalis, E. coli, K. oxytoca, K. pneumoniae, M. morganii, P. mirabilis, P. aeruginosa, S. aureus, S. agalactiae, U. urealyticum, VGS. […]

E. coli and K. oxytoca = experiment: P-AST species-pair interaction on antibiotic resistance (logistic regression, HSAP/UP); assay type: cell-based, Escherichia coli; Klebsiella oxytoca; conditions: E. coli and K. oxytoca together v. expected from each species alone (HSAP/UP)
Description: as §1, §2

E. coli and P. mirabilis = experiment: as above; assay type: cell-based, Escherichia coli; Proteus mirabilis; conditions: E. coli and P. mirabilis together v. expected from each species alone (HSAP/UP)
Description: as §1, §3, §4, §5

[10] = test system: Coagulase-negative Staphylococcus (CoNS) and E. coli; experiment: as above; assay type: cell-based, Coagulase negative staphylococci; Escherichia coli; conditions: CoNS and E. coli together v. expected from each species alone (HSAP/UP)
Description: as §1, §2

CC1(C)S[C@@H]2[C@H](NC(=O)[C@H](N)c3ccccc3)C(=O)N2[C@H]1C(=O)O [Ampicillin, ampicillin]
change in antibiotic resistance of the pair of organisms [1]: decrease in resistance; also recorded: decreased odds of resistance
change in antibiotic resistance of the pair of organisms [2]: decrease in resistance; also recorded: decreased odds of resistance
change in antibiotic resistance of the pair of organisms [3]: reduced resistance
odds of resistance for each additional species identified (in words) [4]: increased

C[C@@H](O)[C@H]1C(=O)N2C(C(=O)O)=C(S[C@@H]3CN[C@H](C(=O)N(C)C)C3)[C@H](C)[C@H]12 [Meropenem, meropenem]
change in antibiotic resistance of the pair of organisms [5]: decrease in resistance; also recorded: decreased odds of resistance
change in antibiotic resistance of the pair of organisms [6]: decrease in resistance; also recorded: decreased odds of resistance
change in antibiotic resistance of the pair of organisms [7]: decrease in resistance; also recorded: decreased odds of resistance
change in antibiotic resistance of the pair of organisms (E. faecalis and E. coli): decrease in resistance; also recorded: decreased odds of resistance

CN[C@H](CC(C)C)C(=O)N[C@H]1C(=O)N[C@@H](CC(N)=O)C(=O)N[C@H]2C(=O)N[C@H]3C(=O)N[C@H](C(=O)N[C@H](C(=O)O)c4cc(O)cc(O)c4-c4cc3ccc4O)[C@H](O)c3ccc(c(Cl)c3)Oc3cc2cc(c3O[C@@H]2O[C@H](CO)[C@@H](O)[C@H](O)[C@H]2O[C@H]2C[C@](C)(N)[C@H](O)[C@H](C)O2)Oc2ccc(cc2Cl)[C@H]1O [Vancomycin, vancomycin]
change in antibiotic resistance of the pair of organisms [1]: decrease in resistance; also recorded: decreased odds of resistance
change in antibiotic resistance of the pair of organisms [8]: decrease in resistance; also recorded: decreased odds of resistance
change in antibiotic resistance of the pair of organisms [9]: decrease in resistance; also recorded: decreased odds of resistance
odds of resistance for each additional species identified (in words) [4]: increased

O=C(O)c1cn(C2CC2)c2cc(N3CCNCC3)c(F)cc2c1=O [Ciprofloxacin, ciprofloxacin]
change in antibiotic resistance of the pair of organisms [2]: decrease in resistance; also recorded: decreased odds of resistance
change in antibiotic resistance of the pair of organisms [3]: decrease in resistance; also recorded: decreased odds of resistance
change in antibiotic resistance of the pair of organisms (E. coli and K. oxytoca): decrease in resistance; also recorded: decreased odds of resistance

CO[C@@]1(NC(=O)Cc2cccs2)C(=O)N2C(C(=O)O)=C(COC(N)=O)CS[C@@H]21 [Cefoxitin, cefoxitin]
change in antibiotic resistance of the pair of organisms (E. coli and P. mirabilis): decrease in resistance; also recorded: decreased odds of resistance

CO/N=C(\C(=O)N[C@@H]1C(=O)N2C(C(=O)O)=C(CSc3nc(=O)c(=O)[nH]n3C)CS[C@H]12)c1csc(N)n1 [Ceftriaxone, ceftriaxone]
change in antibiotic resistance of the pair of organisms (E. coli and P. mirabilis): decrease in resistance; also recorded: decreased odds of resistance
change in antibiotic resistance of the pair of organisms [2]: decrease in resistance; also recorded: decreased odds of resistance
change in antibiotic resistance of the pair of organisms [10]: decrease in resistance; also recorded: decreased probability in resistance; also recorded: decreased odds of resistance
change in antibiotic resistance of the pair of organisms [3]: decrease in resistance; also recorded: decreased odds of resistance
